# Values joined by “and” are separate entries in the source; they are usually repeats but may differ in a detail not shown here. Equal values may be shown once.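 Results reflect a 48-hour exposure of cells in 96-well plates to compound at five concentrations. At the GI50, growth is halved.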 Active and inactive are the calls of the source. Cut-off read from the data, not from the text of the source: active = GI50 up to about 1.1 µM and inactive = higher.
# Assays:
# Experiment in all cases: DTP human tumour cell line panel, 48 h
# [1] = tested on: SK-OV-3
# [2] = tested on: OVCAR-4
# [3] = tested on: NCI-H226
# [4] = tested on: SK-MEL-2
# [5] = tested on: HCC 2998
# [6] = tested on: OVCAR-8
# [7] = tested on: NCI-H23
# [8] = tested on: HCT-15
# [9] = tested on: OVCAR-5
# [10] = tested on: UACC-62
# [11] = tested on: SW-620
# [12] = tested on: HCT-116
# [13] = tested on: OVCAR-3
# [14] = tested on: KM12
# [15] = tested on: SNB-75
# [16] = tested on: HOP-92
# [17] = tested on: NCI-H522
# [18] = tested on: SK-MEL-28
# [19] = tested on: NCI/ADR-RES
# [20] = tested on: TK-10
# [21] = tested on: HT-29
# [22] = tested on: A549
# [23] = tested on: Malme-3M
# [24] = tested on: SN12C
# [25] = tested on: HOP-62
# [26] = tested on: CCRF-CEM
# [27] = tested on: MDA-MB-231
# [28] = tested on: UO-31
# [29] = tested on: SF-295
# [30] = tested on: COLO 205
# [31] = tested on: U-251
# [32] = tested on: SK-MEL-5
# [33] = tested on: RPMI-8226
# [34] = tested on: MDA-N
# [35] = tested on: EKVX
# [36] = tested on: IGROV-1
# [37] = tested on: PC-3
# [38] = tested on: BT-549
# [39] = tested on: CAKI-1
# [40] = tested on: RXF 393
# [41] = tested on: MCF7
# [42] = tested on: DU-145
# [43] = tested on: SF-268
# [44] = tested on: SNB-19
# [45] = tested on: A498
# [46] = tested on: M14
# [47] = tested on: LOX IMVI
# [48] = tested on: MDA-MB-435
# [49] = tested on: MOLT-4
# [50] = tested on: ACHN
# [51] = tested on: HL-60
# [52] = tested on: K562
# [53] = tested on: 786-0
# [54] = tested on: NCI-H460
# [55] = tested on: UACC-257
# [56] = tested on: Hs-578T
# [57] = tested on: SR
smiles,measurement,setting,value
COc1ccc2c(c1)[n+]([O-])c1ccccc1[n+]2[O-],GI50,[1],24.7 µM (inactive)
same,GI50,[2],25 µM (inactive)
same,GI50,[3],26.4 µM (inactive) and 27.2 µM (inactive)
same,GI50,[4],26.9 µM (inactive) and 21.8 µM (inactive)
same,GI50,[5],29.1 µM (inactive)
same,GI50,[6],18.5 µM (inactive) and 17.2 µM (inactive)
same,GI50,[7],24.7 µM (inactive) and 37.5 µM (inactive)
same,GI50,[8],15.1 µM and 28.2 µM
same,GI50,[9],38.7 µM (inactive) and 65.9 µM (inactive)
same,GI50,[10],23.7 µM (inactive) and 18.5 µM (inactive)
same,GI50,[11],24.7 µM (inactive) and 29.9 µM (inactive)
same,GI50,[12],31.5 µM (inactive) and 47.2 µM (inactive)
same,GI50,[13],36.1 µM (inactive) and 44.8 µM (inactive)
same,GI50,[14],40.5 µM (inactive) and 22.4 µM (inactive)
same,GI50,[15],70.1 µM (inactive) and 35.2 µM (inactive)
same,GI50,[16],47.1 µM (inactive)
same,GI50,[17],12.6 µM (inactive) and 14.6 µM (inactive)
same,GI50,[18],78.7 µM (inactive)
same,GI50,[19],29.9 µM (inactive) and 53.3 µM (inactive)
same,GI50,[20],34.1 µM (inactive) and 31.5 µM (inactive)
same,GI50,[21],29.9 µM (inactive) and 51.5 µM (inactive)
same,GI50,[22],11 µM (inactive) and 21.7 µM (inactive)
same,GI50,[23],38.7 µM (inactive) and 37.7 µM (inactive)
same,GI50,[24],28.6 µM (inactive) and 21 µM (inactive)
same,GI50,[25],29.1 µM (inactive) and 36.8 µM (inactive)
same,GI50,[26],22.8 µM (inactive) and 17.9 µM (inactive)
same,GI50,[27],29.7 µM (inactive) and 37.7 µM (inactive)
same,GI50,[28],10.3 µM (inactive) and 10.2 µM (inactive)
same,GI50,[29],21.6 µM (inactive) and 39.8 µM (inactive)
same,GI50,[30],33.2 µM (inactive) and 19.1 µM (inactive)
same,GI50,[31],22.6 µM (inactive) and 37.4 µM (inactive)
same,GI50,[32],18.4 µM (inactive) and 24.1 µM (inactive)
same,GI50,[33],20.3 µM (inactive) and 19.5 µM (inactive)
same,GI50,[34],73.8 µM (inactive)
same,GI50,[35],34 µM (inactive) and 17.5 µM (inactive)
same,GI50,[36],5.9 µM (inactive)
CCN1CC2=C(NC(=S)NC2c2cc(OC)c(OC)c(OC)c2)/C(=C/c2cc(OC)c(OC)c(OC)c2)C1 (stereo unspecified),GI50,[1],> 100 µM (inactive)
same,GI50,[2],75.2 µM (inactive)
same,GI50,[3],27.5 µM (inactive)
same,GI50,[4],70.8 µM (inactive)
same,GI50,[5],29.8 µM (inactive)
same,GI50,[6],21.7 µM (inactive)
same,GI50,[7],38.2 µM (inactive)
same,GI50,[8],32 µM
same,GI50,[9],14.4 µM (inactive)
same,GI50,[10],31.8 µM (inactive)
same,GI50,[11],86.3 µM (inactive)
same,GI50,[37],26.4 µM (inactive)
same,GI50,[38],46.5 µM (inactive)
same,GI50,[39],19.4 µM (inactive)
same,GI50,[40],33 µM (inactive)
same,GI50,[41],24.6 µM (inactive)
same,GI50,[12],27.7 µM (inactive)
same,GI50,[13],67.5 µM (inactive)
same,GI50,[14],98.6 µM (inactive)
same,GI50,[42],33.3 µM (inactive)
same,GI50,[15],2.74 µM (inactive)
same,GI50,[16],18.1 µM (inactive)
same,GI50,[17],10.6 µM (inactive)
same,GI50,[18],13.7 µM (inactive)
same,GI50,[43],6.31 µM (inactive)
same,GI50,[19],30.9 µM (inactive)
same,GI50,[20],36.1 µM (inactive)
same,GI50,[21],23.4 µM (inactive)
same,GI50,[44],36.8 µM (inactive)
same,GI50,[45],27.3 µM (inactive)
same,GI50,[22],26.7 µM (inactive)
same,GI50,[23],871 nM (active)
same,GI50,[46],16.6 µM (inactive)
same,GI50,[25],50.6 µM (inactive)
same,GI50,[47],37.2 µM (inactive)
same,GI50,[48],28.3 µM (inactive)
same,GI50,[26],37.4 µM (inactive)
same,GI50,[27],34.1 µM (inactive)
same,GI50,[49],20.9 µM (inactive)
same,GI50,[28],20.5 µM (inactive)
same,GI50,[29],53 µM (inactive)
same,GI50,[50],44.9 µM (inactive)
same,GI50,[51],19.5 µM (inactive)
same,GI50,[30],20.1 µM (inactive)
same,GI50,[52],17.3 µM (inactive)
same,GI50,[31],45.1 µM (inactive)
same,GI50,[32],13.2 µM (inactive)
same,GI50,[33],14.1 µM (inactive)
same,GI50,[53],28.4 µM (inactive)
same,GI50,[54],46.8 µM (inactive)
same,GI50,[34],25.8 µM (inactive)
same,GI50,[35],15 µM (inactive)
same,GI50,[36],24.4 µM (inactive)
same,GI50,[55],59 µM (inactive)
CSc1cc(Cl)c(C)cc1S(=O)(=O)NC(=O)Nc1ccc(Cl)cc1,GI50,[1],38.7 µM (inactive)
same,GI50,[2],40.1 µM (inactive)
same,GI50,[3],22 µM (inactive)
same,GI50,[4],25.8 µM (inactive)
same,GI50,[5],16 µM (inactive)
same,GI50,[6],35.6 µM (inactive)
same,GI50,[7],18.4 µM (inactive)
same,GI50,[8],20.5 µM
same,GI50,[9],45.3 µM (inactive)
same,GI50,[10],0.48 µM (active)
same,GI50,[11],33.7 µM (inactive)
same,GI50,[37],19.9 µM (inactive)
same,GI50,[38],32 µM (inactive)
same,GI50,[39],41.6 µM (inactive)
same,GI50,[56],51.8 µM (inactive)
same,GI50,[40],22.9 µM (inactive)
same,GI50,[41],30.3 µM (inactive)
same,GI50,[12],17.5 µM (inactive)
same,GI50,[13],28 µM (inactive)
same,GI50,[14],24.1 µM (inactive)
same,GI50,[15],27.1 µM (inactive)
same,GI50,[16],24.4 µM (inactive)
same,GI50,[17],20.4 µM (inactive)
same,GI50,[18],46.1 µM (inactive)
same,GI50,[43],35.9 µM (inactive)
same,GI50,[19],25.6 µM (inactive)
same,GI50,[20],28.5 µM (inactive)
same,GI50,[21],35.2 µM (inactive)
same,GI50,[44],30.5 µM (inactive)
same,GI50,[45],38.2 µM (inactive)
same,GI50,[22],33.3 µM (inactive)
same,GI50,[23],31600 nM (inactive)
same,GI50,[24],36.5 µM (inactive)
same,GI50,[46],39.9 µM (inactive)
same,GI50,[25],24.6 µM (inactive)
same,GI50,[47],10.9 µM (inactive)
same,GI50,[48],38.4 µM (inactive)
same,GI50,[26],12.6 µM (inactive)
same,GI50,[27],29.5 µM (inactive)
same,GI50,[49],16.8 µM (inactive)
same,GI50,[28],17 µM (inactive)
same,GI50,[29],29.6 µM (inactive)
same,GI50,[50],27.8 µM (inactive)
same,GI50,[51],12.3 µM (inactive)
same,GI50,[30],15.5 µM (inactive)
same,GI50,[52],29.9 µM (inactive)
same,GI50,[31],36.6 µM (inactive)
same,GI50,[32],22.2 µM (inactive)
same,GI50,[33],30.9 µM (inactive)
same,GI50,[53],31.2 µM (inactive)
same,GI50,[54],29.1 µM (inactive)
same,GI50,[34],33.5 µM (inactive)
same,GI50,[57],21.5 µM (inactive)
same,GI50,[35],32.7 µM (inactive)
same,GI50,[36],39.6 µM (inactive)
same,GI50,[55],28.5 µM (inactive)
